Measurements reported in US8039468B2, “Method of inhibition of respiratory depression using positive allosteric AMPA receptor modulators” (The Governors of the University of Alberta, priority 2006, dated 2011).
“Also recorded” adds a separate entry of the source. Marks after values point to notes of the source that are not given here.

Legend:
[1] = tested on: inspiratory neuron within the preBötzinger complex; experiment: Whole-cell recording from inspiratory neuron within the preBötzinger complex, medullary slice; type: cell-based, rat
[2] = tested on: medullary slice preparations (preBötC, XII motoneuron nucleus); experiment: Medullary slice preparation, respiratory rhythm (XII nerve root discharge); parameters: species or system rat; details: for DAMGO-induced suppression of inspiratory discharge amplitude, focal injection into XII motorneuron nucleus / DAMGO-induced suppression of respiratory rhythm, focal injection into preBötC: newborn (P2) slice, CX614 200 μM, Compound A 1 mM, DAMGO in bath
Description: The medullary slice preparation is a derivative of the brainstem-spinal cord preparation. See, Smith J. C., et al. (1991). It contains the minimum component of neuronal populations within the ventrolateral medulla necessary for generating a respiratory rhythm, the preBötC. The medullary slice also contains a significant portion of the rostral ventral respiratory group, hypoglossal nucleus and XII cranial nerve rootlets from which inspiratory motor discharge is recorded.
Brainstem-spinal cords isolated from newborn rats were pinned down, ventral surface upward, on a paraffin-coated block. See, Funk, G. D., et al. (1993); Smith, J. C., et al. (1991). The block was mounted in the vise of a vibratome bath (Leica, VT1000S). […] A single transverse slice containing the preBötC and more caudal reticular formation regions was then cut (500-600 μm thick), transferred to a recording chamber and pinned down onto a Sylgard elastomer. The medullary slice was continuously perfused with a bathing solution identical to that used for the brainstem-spinal cord preparation with the exception that in some cases the K^+ concentration was increased to 9 mM which facilitates long-term generation of stable rhythm (>5 hours) by these preparations. See, Funk, G. D., et al. (1993); Smith, J. C., et al. (1991). Recordings were made from the hypoglossal (XII) cranial nerve roots, cervical (C4) ventral roots and neuronal population discharge within the ventrolateral medulla with suction electrodes placed over the nerve roots or on the surface of the rhythmic slice preparations.

[3] = tested on: rats; experiment: Thermal nociception, hind paw withdrawal test; type: in vivo, rat
[4] = tested on: Sprague-Dawley rat
[5] = tested on: perfused heart in situ preparations; experiment: Perfused heart in situ preparation, phrenic nerve discharge; parameters: species or system rat; details: fentanyl 4 nM, then CX546 50 μM in perfusate
[6] = tested on: brainstem-spinal cord preparations; experiment: Brainstem-spinal cord preparation, rhythmic respiratory discharge (C4 ventral root); parameters: species or system rat
Source text: The fetal and neonatal brainstem-spinal cord preparations have been well-characterized and shown to generate complex, coordinated patterns of respiratory-related activity. See, Smith J. C. et al. (1990) and Greer, J. J. et al. (1992). Recordings from cervical ventral and hypoglossal cranial roots provide information regarding the pharmacology of respiratory rhythm generating networks and the pathways transmitting that respiratory drive to key output components of the respiratory motor system, without the confounding influence of peripheral chemoreceptors and supramedullary structures.
Brainstem-spinal cord preparations were carried out as follows: Sprague-Dawley (SD) rat fetuses were delivered from timed-pregnant dams anesthetized with halothane (2% delivered in 95% O2 and 5% CO2) and maintained at 37° C. by radiant heat, following procedures approved by the Animal Welfare Committee at the University of Alberta. The timing of pregnancies was determined by vaginal lavage of the dam. Newborn rat pups were anesthetized with metofane. Newborn pups and embryos were then decerebrated and the brainstem-spinal cord was dissected following procedures similar to those established for perinatal rats. See, Smith, J. C., et al. (1990) J. Neurophysiol. 64:1149-1169; Greer, J. J., et al. (1992) J. Neurophysiol. 67:996-999. The neuraxis was continuously perfused at 27±1° C. (perfusion rate 5 ml/minute, chamber volume of 1.5 ml) with modified Kreb's solution that contained (mM): 128 NaCl, 3.0 KCl, 1.5 CaCl2, 1.0 MgSO4, 24 NaHCO3, 0.5 NaH2PO4, and 30 D-glucose equilibrated with 95% O2-5% CO2 (pH=7.4).

[7] = tested on: XII motorneuron; type: cell-based, rat; details: compound in bathing medium, TTX present
[8] = listed as 4-(BENZOFURAZAN-5-YLCARBONYL)MORPHOLINE

Structure (SMILES): O=C(c1ccc2c(c1)OCCO2)N1CCCCC1 [CX546, 1-(1,4-benzodioxan-6-ylcarbonyl)piperidine]
- frequency of the rhythm and inspiratory drive potential ([1]; current clamp, low extracellular K+): increased
- amplitude of inward inspiratory drive current ([1]; voltage clamp, same neuron): marked increase
- time to restoration of frequency and amplitude to 3 mM [K+] bath levels ([2]; CX546 400 μM bath-applied after rhythm ceased in 3 mM [K+]): ≤ 2 min
- effect on rhythmic respiratory activity after cessation ([2]; CX546 400 μM bath-applied after rhythm ceased in 3 mM [K+], P2 slice): rapid and potent stimulation of respiratory networks; also recorded: restored rhythmic activity of XII motoneurons
- control values of respiratory frequency or amplitude of motor nerve discharge ([2]; CX546 on its own, 9 mM [K+]o): did not significantly alter
- DAMGO-induced depression of respiratory frequency and amplitude ([2]; P1-P2 slice, 9 mM [K+]o, DAMGO 800 nM, then CX546 200 μM bath-applied): alleviated; also recorded: partially reversed
- persistence of respiratory rhythm in presence of compound ([2]; P2 slice, 3 mM [K+]o, CX546 in bath): > 3 h
- Latency (s), hind paw withdrawal ([3]; Adult (2-3 months), drug alone i.p. (CX546 16 mg/kg pre-administration of fentanyl; fentanyl 130 μg/kg)): 5.3 ± 2.1 s
- Latency (s), hind paw withdrawal ([3]; Adult (2-3 months), post-administration of fentanyl 130 μg/kg, CX546 16 mg/kg or naloxone 1 mg/kg i.p.): >20* s
- sensitivity of thermal nociception tests in the control condition ([3]; CX546 16 mg/kg on its own): did not change the sensitivity
- Latency (s), hind paw withdrawal ([3]; Newborn (P1-P2), drug alone i.p. (CX546 16 mg/kg pre-administration of fentanyl; fentanyl 60 μg/kg)): 4.3 ± 3.2 s
- Latency (s), hind paw withdrawal ([3]; Newborn (P1-P2), post-administration of fentanyl 60 μg/kg, CX546 16 mg/kg or naloxone 1 mg/kg i.p.): >20* s
- fentanyl-induced analgesia after subsequent administration of the drug ([3]; newborn and adult rats, CX546 16 mg/kg or naloxone 1 mg/kg i.p.): persisted
- baseline frequency and amplitude of breathing ([4]; CX546 16 mg/kg i.p. on its own, newborn P0-P2 and adult rats): not significantly altered
- behaviour or arousal state (spontaneous movement, agitation, sedation) ([4]; rat, in vivo, ip, 16 mg/kg): without any obvious effect
- fentanyl-induced depression of respiratory frequency and phrenic burst amplitude [5]: counters
- frequency of rhythmic respiratory discharge ([6]; E20 preparation, CX546 50-100 μM in bathing medium): markedly enhanced
- DAMGO-induced depression of respiratory frequency and amplitude ([6]; P1-P2, DAMGO 800 nM, then CX546 200 μM bath-applied): alleviated; also recorded: partially reversed
- baseline respiratory frequency ([6]; P3 preparations, bath-applied CX546): no effect on the baseline frequency
- respiratory frequency compared to control ([6]; perinatal preparations E18-P0, bath-applied CX546): significant increase in frequency

Structure (SMILES): O=C(c1ccc2nonc2c1)N1CCOCC1 [Compound A, 4-(benzofurazan-5-ylcarbonyl)morpholine]
- current amplitude in response to glutamate injections ([1]; voltage clamp, TTX present, bath-applied compound): increases
- DAMGO-induced suppression of inspiratory discharge amplitude, focal injection into XII motorneuron nucleus [2]: alleviates some of the amplitude depression
- DAMGO-induced suppression of respiratory rhythm, focal injection into preBötC [2]: alleviates the frequency depression
- DAMGO-induced suppression of inspiratory discharge amplitude, focal injection into XII motorneuron nucleus [2, 8]: alleviates DAMGO induced suppression of respiratory rhythm
- DAMGO-induced suppression of respiratory rhythm, focal injection into preBötC [2, 8]: alleviates DAMGO induced suppression of respiratory rhythm
- amplitude and duration of glutamate-induced inward currents [7]: not significantly altered
- persistence of enhancement of respiratory rhythm ([4]; rat, in vivo): at least 1 hour

Structure (SMILES): C[C@@H](NC(=O)[C@@H](N)Cc1ccc(O)cc1)C(=O)NCC(=O)N(C)[C@@H](Cc1ccccc1)C(=O)NCCO [DAMGO, Tyr-D-Ala-Gly-N-methyl-Phe-Gly-ol-enkephalin, reference compound]
- respiratory frequency and amplitude ([2]; P1 slice in 9 mM [K+]o, DAMGO 800 nM bath-applied): markedly suppressed
- respiratory frequency and amplitude ([6]; P1 preparation, DAMGO 800 nM bath-applied): markedly suppressed
